Measured values reported in patent EP0023761B1, “Tetrahydroisoquinoline derivatives, process for preparing them and compositions containing them” (priority 1979, dated 1981).
Structures can show the parent of a compound that is named as a salt.

Assays:
[1] = target: T1, phenylethanolamine N-methyltransferase (Oryctolagus cuniculus, UniProt G1TT82); assay: inhibition of phenylethanolamine N-methyltransferase in vitro (assay procedure of Pendleton and Snow); format: biochemical; conditions: read-out: inhibit phenylethanolamine N-methyltransferase; for inhibition at 100 µM: concentration 1.0 x 10-^4 (unit inferred); for inhibition at 1 µM: concentration 1.0 x 10-^6 (unit inferred)
T1 sequence (G1TT82 1-286): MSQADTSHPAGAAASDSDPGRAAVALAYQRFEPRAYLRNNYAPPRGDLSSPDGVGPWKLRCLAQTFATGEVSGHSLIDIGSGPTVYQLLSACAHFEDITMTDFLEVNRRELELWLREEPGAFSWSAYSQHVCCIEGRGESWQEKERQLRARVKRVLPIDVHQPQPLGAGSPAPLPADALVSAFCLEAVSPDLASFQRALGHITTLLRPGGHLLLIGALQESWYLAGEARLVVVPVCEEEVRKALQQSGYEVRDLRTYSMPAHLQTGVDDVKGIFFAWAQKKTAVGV

PNMT = assay: in vivo PNMT inhibition in mice: adrenal epinephrine/norepinephrine ratio, measured fluorometrically; conditions: male mice, oral, 50 mg/kg per day, twice a day for seven days, dosed again next morning, sacrificed two hours later; vehicle control 2.5 + 0.23; p <.01
Experimental: Male mice were dosed orally with either drug or vehicle control on a twice-a-day basis for seven consecutive days. On the morning of the next day they were again dosed and two hours later sacrificed by decapitation. The adrenal glands were then removed and analyzed fluorometrically for both epinephrine and norepinephrine content.

| inhibition at 100 µM [1] [%] | inhibition at 1 µM [1] [%] | SMILES | adrenal epinephrine/norepinephrine ratio (PNMT) |
| --- | --- | --- | --- |
| 99 | 91 | c1cc2nnsc2c2c1CCNC2 [[1,2,3]thiadiazolo[4,5-h]-6,7,8,9-tetrahydroisoquinoline hydrochloride] |  |
| 99 | 94 | c1cc2snnc2c2c1CCNC2 [[1,2,3]thiadiazolo[5,4-h]-6,7,8,9-tetrahydroisoquinoline hydrochloride] | 1.3 ± 0.08 |
